Reference: patent US4600780A, “N-cyano-formamidines” (Ferrer International, S.A., priority 1983, dated 1986)
Counter-ions that a name gives are not always drawn.

Biological target: T1, histamine H2 -receptors (Rattus norvegicus, UniProt P25102)
T1 construct: from tissue; host or cells: stomach of living anaesthetized Sprague-Dawley rats (in vivo perfusion)
Experiment: Blocking activity of histamine H2-receptors: inhibition of histamine-induced perfusate pH decrease (gastric acid secretion) in perfused stomach of anaesthetized rats
Type: in vivo, Sprague-Dawley albino male rats
Details: for ED50: rat, iv, anaesthetized rats, perfused stomach, histamine 0.325 μmols/kg/min, test drugs via femoral veins, read-out: ED50 (inhibition rate of maximal pH decrease in relation to initial pH); for times more active than Cimetidine, according to ED50 values: ratio of ED50 values to Cimetidine (Table 1)
Procedure: The blocking activity of histamine H2 -receptors was tested in Sprague-Dawley albino male rats weighing 350-450 g. Animals subject to 18-hour fasting were anaesthetized with urethane (1.5 g/kg i.p.), after which a longitudinal incision was performed on the abdominal wall, and pylorus and esophagus were cannulated for subject perfusion. In addition, femoral veins were cannulated for administration of test drugs and histamine solution.
The animals' stomachs were perfused with 1/8000N NaOH diluted solution at a rate of 2 ml/min. The perfusion liquid was then circulated through a 3 ml-volume chamber provided with a pH meter electrode. After calibrating the pH, histamine was perfused at 0.325 μmols/kg/min. The histamine perfusion caused a decrease of the perfusion liquid pH, which was inhibited by the compounds of the present invention.

T1 sequence (P25102 whole entry, the tested form may be a part): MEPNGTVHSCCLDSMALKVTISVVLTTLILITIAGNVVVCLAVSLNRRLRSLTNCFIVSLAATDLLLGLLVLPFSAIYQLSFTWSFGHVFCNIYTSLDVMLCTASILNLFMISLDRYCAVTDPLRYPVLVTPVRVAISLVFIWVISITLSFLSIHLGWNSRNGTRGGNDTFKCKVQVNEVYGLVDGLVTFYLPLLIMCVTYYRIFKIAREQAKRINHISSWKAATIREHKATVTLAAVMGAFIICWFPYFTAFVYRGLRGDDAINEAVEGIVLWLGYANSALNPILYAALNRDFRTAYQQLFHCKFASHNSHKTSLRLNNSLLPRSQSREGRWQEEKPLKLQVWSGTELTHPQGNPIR

ED50 [µmol/kg] | times more active than Cimetidine, according to ED50 values [times] | SMILES
2.17 | 2.6 | N#CN=CNCCSCc1csc(NC(=N)N)n1 [Example 3, N-cyano-N'-[2-[[[2-[(aminoiminomethyl)amino]-4-thiazolyl]methyl]thio]ethyl]formamidine maleate acid]
3.2 | 1.8 | N#CN=CNCCCOc1cccc(CN2CCCCC2)c1 [Example 4, N-cyano-N'-[3-[3-(1-piperidinylmethyl)phenoxy]propyl]formamidine hydrochloride]

SMILES | ED50 [µmol/kg] | times more active than Cimetidine, according to ED50 values [times]
CN/C(=N/CCSCc1nc[nH]c1C)NC#N [Cimetidine, reference compound] | 5.6 | –
